We go through 3 compounds from patent publication US11497756B2, “Treatment regimen for cancers that are insensitive to BCL-2 inhibitors using the MCL-1 inhibitor alvocidib” (Sumitomo Pharma Oncology, Inc., priority 2017, dated 2022).

The term EC50 denotes the concentration giving half of the maximal effect. Higher therefore signals lower potency in that assay.

The test system of data set [1] is OCI-AML3 cells. Kind of data set: Sensitivity of OCI-AML3 cells to Venetoclax/ABT-199. It counts as cell-based. The conditions noted are these: Homo sapiens, OCI-AML-3.
Data set [2] deals with MCL-1 expression in MV-4-11 cells. Kind of data set: MCL-1 protein expression in MV-4-11 cells treated in vitro. It counts as cell-based.
Method: MV-4-11 cells were treated with alvocidib in vitro, harvested and analyzed to probe for changes relative to controls. Additionally, other exemplary CDK9 inhibitors (i.e., palbociclib and dinaciclib) were evaluated, along with alvocidib.
The subject of data set [3] is OCI-AML3 cells. The data set is described as follows: In vivo tumor growth, immune deficient mice injected with OCI-AML3 cells. The conditions noted are these: 2.5 mg/kg intraperitoneal, once a day for 21 days, by day 21, FIG. 3. As for the experimental part:
Alvocidib was used alone to test in vivo activity in OCI-AML3 cells. […] To test the in vivo activity, immune deficient mice injected with OCI-AML3 cells were treated with 2.5 mg/kg of alvocidib via intraperitoneal injection or 100 mg/kg of Venetoclax/ABT-199 per os (i.e., oral administration). Each treatment (i.e., alvocidib and Venetoclax/ABT-199) was administered once a day for 21 days.

In a further data set the test system is OPM2 cells. Kind of data set: Cell viability (CellTiter-Glo) in OPM2 multiple myeloma cells. It counts as cell-based. The conditions noted are these: 72 hours, compared to Venetoclax, FIG. 6. As for the experimental part: To assess the effects of alvocidib or Venetoclax treatment on multiple myeloma cells, OPM2 cells were cultured in RPMI media supplemented with 10% FBS and penicillin/streptomycin. Cell viability was assessed in treated cells using the CellTiter-Glo reagent (Promega), according to manufacturer protocol. Cells were treated in 96-well plates for 72 hours, before being analyzed in a luminescence compatible plate reader. Curve fitting and analysis was performed using Graphpad Prism software.
(ATP-based viability assays read luminescence as a measure of living cells.)

In a further data set the test system is HEL cells. Kind of data set: Cell viability (CellTiter-Glo) in HEL erythroleukemia cells. It counts as cell-based. The conditions noted are these: 72 hours, compared to Venetoclax, FIG. 5. As for the experimental part: To assess the effects of alvocidib or Venetoclax treatment on leukemic cells, the erythroleukima cell line, HEL, was cultured in RPMI media supplemented with 10% FBS and penicillin/streptomycin. Cell viability was assessed in treated cells using the CellTiter-Glo reagent (Promega), according to manufacturer protocol. Cells were treated in 96-well plates for 72 hours, before being analyzed in a luminescence compatible plate reader. Curve fitting and analysis was performed using Graphpad Prism software.

Data set [4] has as its system MCL-1 expression in OCI-AML3 cells. The data set is described as follows: MCL-1 expression in OCI-AML3 cells in vitro. It counts as cell-based. The conditions noted are these: multiple time points after treatment, FIG. 4. From the text: MCL-1 expression was decreased in OCI-AML3 cells at multiple time points following treatment with alvocidib (FIG. 4).
The conditions of data set [5]: in vivo; cited from earlier work.

SMILES strings stand for the structures.

`CC1(C)CCC(CN2CCN(c3ccc(C(=O)NS(=O)(=O)c4ccc(NCC5CCOCC5)c([N+](=O)[O-])c4)c(Oc4cnc5[nH]ccc5c4)c3)CC2)=C(c2ccc(Cl)cc2)C1` [Venetoclax]: in the data set on OCI-AML3 cells [1], the response was half-maximal at 2.33 µM (EC50).

Regarding `CN1CC[C@H](c2c(O)cc(O)c3c(=O)cc(-c4ccccc4Cl)oc23)[C@H](O)C1` [alvocidib], the MCL-1 expression entry in data set [2] (24 hour treatment, FIG. 2) is “decreased MCL-1 expression”; in data set [4], “decreased”. In addition, the “impact on MCL-1 protein levels compared with the other CDK9 inhibitors” value in data set [2] (24 hour treatment, FIG. 2) is listed as “strongest impact on MCL-1 protein levels”. In data set [2] (alvocidib 0-8 μM, FIG. 1), the “MCL-1 expression relative to controls” value was “decreases MCL-1 expression in MV-4-11 in a dose dependent manner”. Further, in the data set on OCI-AML3 cells [3], the “reduction in tumor growth” value amounted to 50%. Further, the cell viability entry with OPM2 cells and with HEL cells was “inhibition of cell viability” in each case.

With `CC1(C)CCC(c2ccc(Cl)cc2)=C(CN2CCN(c3ccc(C(=O)NS(=O)(=O)c4ccc(N[C@H](CCN5CCOCC5)CSc5ccccc5)c(S(=O)(=O)C(F)(F)F)c4)cc3)CC2)C1` [navitoclax], the toxicity result in data set [5] is “toxic due to thrombocytopenia”.
